PubChem BioAssay AID179 (DTP/NCI, 2004)
Several values for one entry are separate records, joined by “and”; a condition that tells them apart may be missing. Equal entries are not always repeated. Activity calls are given as the source filed them.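 Rule for the calls: active = compounds giving half or more protection of infected cells from virus-caused growth loss, again on retest; inactive = the rest.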 Where a SMILES comes first, the peptide text is derived from it. [ ]: non-standard residue; d: D form. The star is where a group is joined. ξ: configuration not given here. Dnp = O=[N+]([O-])c1ccc(*)c([N+](=O)[O-])c1; Bz = O=C(c1ccccc1)*; ξC = NC(CS)C(=O)O

System: CEM cells HIV-1 protection, formazan growth assay
Experiment: NCI AIDS Antiviral Assay
Details: for IC50: measured here: growth of uninfected CEM cells
In short: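 Protection of CEM cells against HIV-1 measured as cell growth via soluble formazan read-out, with five concentrations tested on both infected and uninfected cells; failure to protect may reflect toxicity.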

Cc1ccc(S(=O)(=O)ON2C(=O)c3c(N)c(C#N)c(-c4ccccc4)c(-c4ccccc4)c3C2=O)cc1
EC50: > 200 µM
IC50: 3.8 µM

CC[C@H](OCc1ccccc1)/C(C)=C/CC(C)/C=C(/C[C@]1(C)OC(=O)N2CCC[C@H]21)[Si](C)(C)C (some centres undefined)
EC50: > 10.7 µM
IC50: > 10.7 µM

NS(=O)(=O)c1ccc(NC(=O)c2cccn3c(=O)c4ccccc4nc23)cc1
outcome: inactive

CCC1NC2CC3(C(=O)N(OC)c4ccccc43)C3CC1C2CO3 (centres undefined)
EC50: > 269 µM
IC50: > 269 µM

COc1ccc(C(O)C2c3c(cc4c(c3OC)OCO4)CCN2C)c(CO)c1OC (centres undefined)
outcome: inactive

O=C(CCc1cc(-c2ccccc2)n[nH]1)Nc1ccccc1[N+](=O)[O-]
outcome: inactive

CC(C)(C)C(=O)N(C(=S)OCc1ccccn1)c1ccccc1
EC50: > 200 µM
IC50: 40.7 µM

O=C1C=C(NC(=O)c2ccc(Cl)cc2)c2ncccc2C1=O
outcome: inactive

C=C(CC)C(=O)c1ccc(OCC(=O)O)c(Cl)c1Cl
EC50: > 200 µM
outcome: inactive
IC50: 43.7 µM

Cc1nnc2sc(NN)nn12
EC50: > 200 µM
IC50: 107 µM

Cc1nc(CC2C(CO[Si](C)(C)C(C)(C)C)OC(n3ccc(=O)[nH]c3=O)C2O[Si](C)(C)C(C)(C)C)no1 (centres undefined)
EC50: > 200 µM
IC50: 6.61 µM

[N-]=[N+]=NC1C2CC3C4CC5CC3[C@H](C2)C(C5)C41 (some centres undefined)
EC50: > 81.3 µM
IC50: > 81.3 µM

NC1=NC(c2ccccc2)CC(c2cc(Cl)ccc2O)=N1 (centres undefined)
EC50: > 200 µM
IC50: 12.6 µM

Fc1ccc2nncc(SCc3ccc(Cl)c(Cl)c3)c2c1
EC50: > 79.4 µM
IC50: > 79.4 µM

O=C(c1ccccc1)C1C(C(=O)c2ccccc2)N1Cc1ccccc1 (centres undefined)
EC50: > 200 µM
IC50: 60.3 µM and > 55 µM

c1ccc2c(c1)nc1n2CC2(CS1)CSc1nc3ccccc3n1C2
outcome: inactive

COc1ccc(C(=O)Cc2nc3nnc(N)n3nc2CC(=O)c2ccc(OC)cc2)cc1
EC50: > 575 µM
IC50: > 575 µM

CSc1nc(C#N)c(/N=C\N(C)C)n1C
EC50: > 200 µM
IC50: > 200 µM

N#Cc1cc2c(cc1Cl)Sc1nccn1S2(=O)=O
EC50: > 200 µM
IC50: 0.851 µM

OCc1cn(C(c2ccccc2)(c2ccccc2)c2ccccc2)cn1
EC50: 195 µM
IC50: > 200 µM

O=C(Nc1ccc(-c2ccccn2)oc1=O)c1ccccc1
EC50: > 200 µM
IC50: > 200 µM

Cn1c(=O)n2n(c1=O)C1C3C4C5C3C13COCC53C42 (centres undefined)
outcome: inactive

CN1C(c2ccccc2)(c2ccccc2)c2ccccc2S1(=O)=O
EC50: > 200 µM
IC50: 50.1 µM

CCCCNC(C)(C)C(SSSC(c1cccs1)C(C)(C)NCCCC)c1cccs1 (centres undefined)
EC50: > 200 µM
IC50: 20 µM

Cc1c(C)c([N+](=O)[O-])c2c(c1N)C(=O)c1ccccc1C2=O
outcome: inactive

CC1=NOC/C1=N\Nc1ccc(C(C)=NC2C3CC4CC(C3)CC2C4)cc1 (centres undefined)
EC50: > 27.5 µM
IC50: > 27.5 µM

O=C1c2ccccc2-c2cc3ccccc3c(=O)n21
outcome: inactive

CC(=O)N(NC(=O)P(=O)(OC(C)C)OC(C)C)c1ccc([N+](=O)[O-])cc1
EC50: > 129 µM
IC50: > 129 µM

Nc1nc(NC(=O)C2=NS(=O)(=O)c3cc(S(N)(=O)=O)c(Cl)cc3N2)n[nH]1
EC50: 331 µM
IC50: 380 µM

CCN(CC)CCC(=O)N1C/C(=C/c2ccccc2)C(=O)/C(=C\c2ccccc2)C1
EC50: > 200 µM
IC50: 0.407 µM

CC1(c2nc3ccccc3[nH]2)CCC(CO)C(C)(C)O1 (centres undefined)
EC50: > 200 µM
IC50: > 200 µM

CCCCNC(=O)/C(=C/c1cccc(N(CC)CC)c1)NC(=O)c1ccccc1
EC50: > 200 µM
IC50: 25.1 µM

O=C(OC1C=C=CS(=O)(=O)CC#C/C=C\1)c1cnc2ccccc2n1 (centres undefined)
EC50: > 200 µM
IC50: 102 µM

C=CC1C2=C(C(=O)NCC2)C2OC(O)C3=C(CCNC3=O)C2C1C (centres undefined)
outcome: inactive

Cc1ccc2c(c1)-c1c(C#N)c(N)nc(-c3ccc(Cl)cc3)c1CCS2(=O)=O
EC50: > 200 µM
IC50: 3.16 µM

CCOC(=O)C1(C(=O)OCC)C=C(c2ccccc2)N(C2OC(COC(C)=O)C(OC(C)=O)C(OC(C)=O)C2OC(C)=O)C1=S (centres undefined)
EC50: > 200 µM
IC50: 24.5 µM

N#Cc1c(-c2ccco2)c2c(n(C3OC(CO)C(O)C(O)C3O)c1=S)CCCC2 (centres undefined)
EC50: > 200 µM
IC50: 110 µM

COP(=O)(N/N=C/C(=O)O)OC
EC50: > 1260 µM
IC50: > 1260 µM

O=C(O)C1SCCS1
EC50: > 200 µM
IC50: > 200 µM

C=CCCC(=O)CC(O)(C(F)(F)F)C(F)(F)F
outcome: inactive

C=CCn1c(=O)c(-c2ccccc2)c(O)c2ccccc21
EC50: > 200 µM
IC50: > 200 µM

CC(C)C(NCc1c(O)ccc2c(-c3ccccc3)cc(=O)oc12)C(=O)O (centres undefined)
EC50: > 200 µM
IC50: > 200 µM

Nc1nncs1
EC50: > 1780 µM
IC50: 871 µM

CC1=C/C(=C(/c2cccc(S(=O)(=O)O)c2)c2cc(C)c(O)c(C(=O)O)c2)C=C(C(=O)O)C1=O
outcome: inactive

CC(=O)CC(=O)CCCC(=O)Nc1ccc(Cl)cc1C
outcome: inactive

CC1CC(C)(C)OC(c2ccco2)O1 (centres undefined)
EC50: > 200 µM
IC50: > 200 µM

COC(=O)C1=CON2C3CC4CC(C3)CC(C4)C12C (centres undefined)
EC50: > 200 µM
IC50: 135 µM

CC(=O)OCC(OC(C)=O)C(Cl)CCl (centres undefined)
EC50: > 200 µM
IC50: > 200 µM

CCC1NCC(=O)c2c1[nH]c1ccccc21 (centres undefined)
outcome: inactive

CCOC(=O)C(CC[C@@H]1N[C@H](C(N)=O)Cc2c1[nH]c1ccccc21)C(=O)OCC
EC50: > 89.1 µM
IC50: > 89.1 µM

CC(=O)/C(C=Nc1c(C)n(C)n(-c2ccccc2)c1=O)=C(/C)O
EC50: > 200 µM
IC50: > 200 µM

CC(CO)CCNc1ncnc2c1ncn2CCC(=O)OC(C)(C)C (centres undefined)
EC50: > 200 µM
IC50: > 200 µM

Nc1ccc(S(=O)(=O)NCCSSCCNS(=O)(=O)c2ccc(N)cc2)cc1
EC50: > 200 µM
IC50: 45.7 µM

Cc1nc2ccccc2c(=O)n1-c1nc2ccccc2s1
EC50: > 200 µM
IC50: 31.6 µM

CCOC(=O)c1cnc(-n2[nH]c3c(c2=O)CCCC3)[nH]c1=O
EC50: > 151 µM
IC50: 29.5 µM

C(=N\Nc1nnc2c(n1)[nH]c1ccccc12)/c1ccccc1
EC50: > 200 µM
IC50: > 200 µM

COc1ccc(C(=O)C(C(=O)CCC(=O)Nc2cccc(C(F)(F)F)c2)c2ccccc2)cc1 (centres undefined)
EC50: > 11.2 µM
IC50: > 11.2 µM

CCC1Sc2cc(OC)cc(NC=O)c2NC1=O (centres undefined)
EC50: 174 µM
IC50: > 200 µM

CN1C(=O)/C(=C2\SC(=O)N(CN3CCOCC3)C2=O)c2cc(Br)ccc21
EC50: > 200 µM
IC50: 26.3 µM

O=c1oc2ccccc2c(O)c1C(c1cccs1)c1c(O)c2ccccc2oc1=O
EC50: > 200 µM
IC50: 30.2 µM

O=C(O)C1=C(C(=O)O)C2CCC1C2
EC50: > 200 µM
IC50: > 200 µM

CCN(CC)CC/C=C1\c2ccccc2Sc2ccc(Cl)cc21
outcome: inactive

C[Si](C)(C)OC=C1CCCCC1
EC50: > 200 µM
IC50: > 200 µM

CC(C)NCCCC(C)Nc1ccnc2ccc3nn(C)nc3c12 (centres undefined)
EC50: > 240 µM
IC50: 53.7 µM

COc1cc2cc(C(=O)N3CC(CCl)c4c3cc(NC(=O)OCc3ccc([N+](=O)[O-])cc3)c3ccccc43)[nH]c2c(OC)c1OC (centres undefined)
EC50: > 200 µM
IC50: 2.88 µM

NC(=O)NCOC(=S)SSSC(=S)OCNC(N)=O
EC50: > 200 µM
IC50: 32.4 µM

Cc1c(Cc2ccccc2)n(C(C)OCCO)c(=O)[nH]c1=O (centres undefined)
EC50: > 200 µM
IC50: > 200 µM

COc1ccc(OC)c(/C=C/C(=O)C(C)(C)C)c1
EC50: > 105 µM
IC50: 19.1 µM

FC(F)C(F)(F)N1c2ccccc2Sc2ccccc21
EC50: > 200 µM
IC50: 72.4 µM

NC(=O)CNC(=O)C1CC(O)CN1C(=O)OCc1ccccc1 (centres undefined) (HELM PEPTIDE1{[O=C(OCc1ccccc1)[*:2]].[O=C(C1CC(O)CN1[*:1])[*:2]].G.[am]}$$$$V2.0)
EC50: > 200 µM
IC50: > 200 µM

O=C1CN(CCO)CC(=O)N2Cc3ccccc3CN12
outcome: inactive

CC1(C)COC(c2cccc(C3=NC(C)(C)CO3)c2)=N1
EC50: > 200 µM
IC50: > 200 µM

COc1ccc(/C(C)=N/NC(N)=S)c(OC)c1
outcome: inactive

CCCC1OP(=O)(N2CC(C)N(P3(=O)OCC(CC)C(CCC)O3)CC2C)OCC1CC (centres undefined)
EC50: > 200 µM
IC50: > 200 µM

Nc1ccc2c(c1)[O][Sn]([c]1ccccc1)([c]1ccccc1)[O]C2=O
outcome: inactive

Cc1ccc(S(=O)(=O)NC2CCCCO2)cc1 (centres undefined)
EC50: > 708 µM
IC50: > 708 µM

Cc1cccc2c1CC1(C2)Cc2c(C)cccc2C1=O (centres undefined)
EC50: > 200 µM
IC50: 37.2 µM

NC(=Nc1ccc(Br)cc1)/N=C(/N)Nc1cccc(S(=O)(=O)Nc2ncc(Cl)cn2)c1
EC50: > 200 µM
IC50: > 200 µM

CCN(CC)C1Oc2cc3c(cc2C(c2ccc(OC)cc2)C1C)OCO3 (centres undefined)
EC50: > 200 µM
IC50: 24 µM

Cc1c(C#N)c(N)n(C2OCC(O)C(O)C2O)c(=S)c1C#N (centres undefined)
outcome: inactive

CC1(C)Oc2cc3oc(C(=O)O)cc(=O)c3cc2-c2ccc(O)cc21
EC50: > 490 µM
IC50: 347 µM

O=C(NNC(=O)c1cc2ccccc2[nH]1)c1cc2ccccc2[nH]1
EC50: > 200 µM
IC50: > 200 µM

COc1ccc2c(c1)C(=O)CC(C(=O)O)C2 (centres undefined)
EC50: > 1120 µM
IC50: > 1120 µM

O=S(Nc1ccccc1)c1ccc(Cl)c(Cl)c1 (centres undefined)
EC50: > 200 µM
IC50: > 200 µM

CC1=CC(=C(c2ccc(N)cc2)c2ccc(N)cc2)C=CC1=N
outcome: inactive

COc1cccc(N2C(=O)C3c4[nH]c5ccccc5c4C4CCCC4C3C2=O)c1 (centres undefined)
EC50: > 200 µM
IC50: > 200 µM

COC(=O)C(CSc1ccc([N+](=O)[O-])cc1[N+](=O)[O-])NC(=O)CNC(=O)c1ccccc1 (centres undefined) (Bz-Gly-[ξC](Dnp)-OMe)
EC50: > 15.5 µM
IC50: > 15.5 µM

COC(O)C(=O)c1c2c(cc3c1CCC3)CCC2 (centres undefined)
EC50: > 200 µM
IC50: 174 µM

COc1cc(-c2cc(=O)c3ccc(O)cc3o2)cc(OC)c1OC
EC50: > 200 µM
IC50: > 200 µM

CC(=O)OCC1OC(n2c(-c3ccc(C)cc3)cc(-c3ccco3)c(C#N)c2=S)C(OC(C)=O)C(OC(C)=O)C1OC(C)=O (centres undefined)
EC50: > 200 µM
IC50: 155 µM

CC(=O)OC1C=CN(C(C)=O)C(SC(C)(C)C)C1(C)O (centres undefined)
EC50: > 200 µM
IC50: > 200 µM
